{"source": "ChEMBL document CHEMBL1641536", "about": "“The identification, and optimisation of hERG selectivity, of a mixed NET/SERT re-uptake inhibitor for the treatment of pain” (Bioorg Med Chem Lett, 2011)", "key": {"[1]": {"test": "Tmax in Wistar rat at 10 mg/kg, po", "format": "ADME, organism-based", "set-up": "dose 10 mg/kg, route oral", "settings": "in vivo"}, "[2]": {"test": "Oral bioavailability in Wistar rat at 10 mg/kg", "format": "ADME, organism-based", "settings": "in vivo"}, "[3]": {"test": "Half life in Wistar rat at 10 mg/kg, po", "format": "ADME, organism-based", "set-up": "dose 10 mg/kg, route oral", "settings": "in vivo"}, "[4]": {"test": "Volume of distribution at steady state in Wistar rat at 1 mg/kg, iv", "format": "ADME, organism-based", "set-up": "dose 1 mg/kg, route intravenous", "settings": "in vivo, read-out: Vdss"}, "[5]": {"system": "Rattus norvegicus", "test": "AUC in Wistar rat at 1 mg/kg, iv", "format": "ADME, organism-based, Plasma", "set-up": "dose 1 mg/kg, route intravenous", "settings": "in vivo"}}}
{"smiles": "N#Cc1cc(O[C@@H]2C[C@H]3CC[C@@H](C2)N3)cc(-c2ncccc2C#N)c1", "values": [{"measurement": "Tmax", "setting": "[1]", "result": 1.7, "unit": "h"}, {"measurement": "bioavailability", "setting": "[2]", "result": 34, "unit": "%"}, {"measurement": "half-life", "setting": "[3]", "result": 192, "unit": "min"}, {"measurement": "Vd", "setting": "[4]", "result": 6.9, "unit": "L/kg"}, {"measurement": "AUC", "setting": "[5]", "result": 563, "unit": "ng·h/mL"}]}
